This data set can be described thus: Viscosity by Brookfield DV-II viscometer. It counts as physicochemical. To be noted: 50 wt % product, spindle 34, 10 to 40° C.; compared to Na4 GLDA; data in FIG. 1. Here is the method: After addition of the KOH (45% sol) and the NaOH (50% sol) solution the products were subjected to evaporation to isolate an alkalimetal salt of glutamic acid-N,N-diacetic acid product having a concentration of 50 wt %.
The viscosity of the alkalimetal salt of glutamic acid-N,N-diacetic acid products prepared in Examples 1a-e was determined using a Brookfield DV-II viscometer with a spindle 34 at a temperature of 10 to 40° C.

Regarding `O=C([O-])CC[C@@H](C(=O)[O-])N(CC(=O)[O-])CC(=O)[O-].[K+].[K+].[Na+].[Na+]` [Na2K2 GLDA], the viscosity entry was “significantly lower viscosity”.
As for `O=C(O)CC[C@@H](C(=O)O)N(CC(=O)O)CC(=O)O.[K].[Na].[Na].[Na]` [Na3K GLDA, monopotassium trisodium glutamic acid-N,N-diacetic acid], the viscosity entry is “significantly lower viscosity”.

(Values after patent publication US8399705B2, “Alkali metal salt of glutamic acid N,N-diacetic acid, a process to prepare such salt, and the use thereof” (Akzo Nobel N.V., priority 2007, dated 2013).)
